Assay results as given in patent US9198433B2, “Substituted benzene fungicides” (E I DU PONT DE NEMOURS AND COMPANY, priority 2007, dated 2015).
Where two headings read alike, the source gives them in different places. Marks after values point to notes of the source that are not given here.

What was measured:
Format in all cases: in vivo
[1] = tested on: Plasmopara viticola; assay: Test K: grape downy mildew, spray on grape seedlings after inoculation, disease rating
Excerpt: The test compounds were first dissolved in acetone in an amount equal to 3% of the final volume and then suspended at the desired concentration (in ppm) in acetone and purified water (50/50 mix) containing 250 ppm of the surfactant Trem® 014 (polyhydric alcohol esters). The resulting test suspensions were then used in Tests A-L. Spraying a 200 ppm test suspension to the point of run-off on the test plants was the equivalent of an application rate of 500 g/ha. Grape seedlings were inoculated with a spore suspension of Plasmopara viticola (the causal agent of grape downy mildew) and incubated in a saturated atmosphere at 20° C. for 24 h. After a short drying period, the test suspension was sprayed to the point of run-off on the grape seedlings and then moved to a growth chamber at 20° C. for 6 days, after which the test units were placed back into a saturated atmosphere at 20° C. for 24 h. Upon removal, disease ratings were made. […] A dash (-) indicates no test results. All results are for 200 ppm except where followed by an “*”, which indicates 40 ppm or “**”, which indicates 50 ppm.

[2] = tested on: Botrytis cinerea; assay: Test F: tomato Botrytis, preventive spray on tomato seedlings, disease rating
Summary of the method: (§1)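 Disease ratings follow a preventive run-off spray of tomato seedlings. Compounds were first dissolved in acetone (3% of volume), then suspended in 50/50 acetone/water containing 250 ppm Trem 014. Test level 200 ppm (equivalent to 500 g/ha) except where marked * for 40 ppm or ** for 50 ppm.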

[3] = tested on: Erysiphe graminis f. sp. tritici; assay: Test A: wheat powdery mildew, preventive spray on wheat seedlings, disease rating
Summary of the method: (§2)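 Preventive spray to run-off on wheat seedlings; test suspension in acetone:water 50:50 plus 250 ppm surfactant, acetone predissolution at 3% of final volume. Dose 200 ppm (≈500 g/ha) by default, 40 ppm or 50 ppm where flagged.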

[4] = tested on: Fusarium graminearum; conditions: wheat head scab
[5] = tested on: Alternaria solani; assay: Test H: tomato early blight, preventive spray on tomato seedlings, disease rating
Summary of the method: as §1

[6] = tested on: Phytophthora infestans; conditions: tomato late blight
[7] = tested on: Rhizoctonia oryzae; assay: Test I: turf brown patch, preventive spray on creeping bent grass seedlings, disease rating
Excerpt: The test compounds were first dissolved in acetone in an amount equal to 3% of the final volume and then suspended at the desired concentration (in ppm) in acetone and purified water (50/50 mix) containing 250 ppm of the surfactant Trem® 014 (polyhydric alcohol esters). The resulting test suspensions were then used in Tests A-L. Spraying a 200 ppm test suspension to the point of run-off on the test plants was the equivalent of an application rate of 500 g/ha. The test suspension was sprayed to the point of run-off on creeping bent grass seedlings. […] A dash (-) indicates no test results. All results are for 200 ppm except where followed by an “*”, which indicates 40 ppm or “**”, which indicates 50 ppm.

[8] = tested on: Puccinia recondita f. sp. tritici; assay: Test B: wheat leaf rust, preventive spray on wheat seedlings, disease rating
Summary of the method: as §2

[9] = tested on: Septoria nodorum; assay: Test C: wheat glume blotch, preventive spray on wheat seedlings, disease rating
Summary of the method: as §2

[10] = tested on: Pythium aphanidermatum; assay: Test L: bluegrass pythium blight, preventive spray on bluegrass seedlings, disease rating
Excerpt: The test compounds were first dissolved in acetone in an amount equal to 3% of the final volume and then suspended at the desired concentration (in ppm) in acetone and purified water (50/50 mix) containing 250 ppm of the surfactant Trem® 014 (polyhydric alcohol esters). The resulting test suspensions were then used in Tests A-L. Spraying a 200 ppm test suspension to the point of run-off on the test plants was the equivalent of an application rate of 500 g/ha. The test suspension was sprayed to the point of run-off on bluegrass seedlings. […] A dash (-) indicates no test results. All results are for 200 ppm except where followed by an “*”, which indicates 40 ppm or “**”, which indicates 50 ppm.

[11] = tested on: Septoria tritici; assay: Test D: wheat leaf blotch, preventive spray on wheat seedlings, disease rating
Summary of the method: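 Preventive test: one day after run-off spraying (200 ppm, equal to 500 g/ha, unless marked 40 or 50 ppm; acetone/water plus 250 ppm Trem 014), seedlings received S. tritici spore inoculum. Disease scored after 48 h at 24 °C in saturated air and 19 further days at 20 °C.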

[12] = 40 ppm (*), 100 = 100% disease control, 0 = no control relative to controls
[13] = 200 ppm, 100 = 100% disease control, 0 = no control relative to controls

Compound | Percentage Disease Control, Test K ([1]; 200 ppm) [%] | Percentage Disease Control, Test F ([2]; 200 ppm) [%] | Percentage Disease Control, Test A ([3]; 200 ppm) [%] | Percentage Disease Control, Test E ([4]; 200 ppm) [%] | Percentage Disease Control, Test H ([5]; 200 ppm) [%] | Percentage Disease Control, Test J ([6]; 200 ppm) [%] | Percentage Disease Control, Test I ([7]; 200 ppm) [%] | Percentage Disease Control, Test B ([8]; 200 ppm) [%] | Percentage Disease Control, Test C ([9]; 200 ppm) [%] | Percentage Disease Control, Test L ([10]; 200 ppm) [%] | Percentage Disease Control, Test D ([11]; 40 ppm (*)) | also measured
COC(=O)NCc1cc(-c2ccn(Cc3cccc(C)n3)n2)ccc1Cl [Cmpd 20] | 0 | 0 | 99 | 72 | 0 | 0 | 0 | 100 | 96 | 0 |  | 
COC(=O)NCc1cc(-c2cc[nH]n2)ccc1Cl [Cmpd 21] | 0 | 0 | 0 | 0 | 0 | 0 | 0 | 79 | 0 | 0 |  | 
C#CCCCn1ccc(-c2ccc(Cl)c(CNC(=O)OC)c2)n1 [Cmpd 24] | 83 | 0 |  |  | 0 |  | 0 |  |  |  |  | Percentage Disease Control, Test A ([3]; 40 ppm (*)): 96* %; Percentage Disease Control, Test E ([4]; 40 ppm (*)): 96* %; Percentage Disease Control, Test J ([6]; 40 ppm (*)): 0* %; Percentage Disease Control, Test B ([8]; 40 ppm (*)): 99* %; Percentage Disease Control, Test C ([9]; 40 ppm (*)): 99* %
COC(=O)NCc1cc(-c2ccn(C(C)[Si](C)(C)C)n2)ccc1Cl (centres unmarked) [Cmpd 29] |  |  |  |  |  |  |  |  |  |  |  | Percentage Disease Control, Test K ([1]; 50 ppm (**)): 27** %; Percentage Disease Control, Test D ([11]; 50 ppm (**)): 96** %; Percentage Disease Control, Test F ([2]; 50 ppm (**)): 0** %; Percentage Disease Control, Test A ([3]; 50 ppm (**)): 78** %; Percentage Disease Control, Test H ([5]; 50 ppm (**)): 67** %; Percentage Disease Control, Test J ([6]; 50 ppm (**)): 0** %; Percentage Disease Control, Test I ([7]; 50 ppm (**)): 0** %; Percentage Disease Control, Test B ([8]; 50 ppm (**)): 98** %; Percentage Disease Control, Test C ([9]; 50 ppm (**)): 82** %; Percentage Disease Control, Test L ([10]; 50 ppm (**)): 0** %
COC(=O)NCc1cc(-c2ccn(CCC=C(C)C)n2)ccc1Cl [Cmpd 30] | 74 | 0 | 83 |  | 0 | 0 | 0 | 98 | 73 | 0 |  | Percentage Disease Control, Test D ([11]; 200 ppm): 90%
COC(=O)NCc1cc(-c2ccn(CCC#N)n2)ccc1Cl [Cmpd 31] |  |  |  |  |  |  |  |  |  |  | 69* % | Percentage Disease Control, Test K ([1]; 40 ppm (*)): 20* %; Percentage Disease Control, Test F ([2]; 40 ppm (*)): 0* %; Percentage Disease Control, Test A ([3]; 40 ppm (*)): 0* %; Percentage Disease Control, Test H ([5]; 40 ppm (*)): 0* %; Percentage Disease Control, Test J ([6]; 40 ppm (*)): 0* %; Percentage Disease Control, Test I ([7]; 40 ppm (*)): 0* %; Percentage Disease Control, Test B ([8]; 40 ppm (*)): 0* %; Percentage Disease Control, Test C ([9]; 40 ppm (*)): 0* %; Percentage Disease Control, Test L ([10]; 40 ppm (*)): 0* %
COC(=O)NCc1cc(-c2ccn(CCCC#N)n2)ccc1Cl [Cmpd 32] | 34 | 0 | 41 |  | 0 | 0 | 0 | 80 | 0 | 0 |  | Percentage Disease Control, Test D ([11]; 200 ppm): 88%
COC(=O)NCc1cc(-c2ccn(-c3cccc(C(F)(F)F)c3)n2)ccc1Cl [Cmpd 50] |  | 0 |  |  | 55 |  |  |  |  |  | 100* % | Percentage Disease Control, Test A ([3]; 40 ppm (*)): 100* %; Percentage Disease Control, Test E ([4]; 40 ppm (*)): 97* %; Percentage Disease Control, Test B ([8]; 40 ppm (*)): 99* %; Percentage Disease Control, Test C ([9]; 40 ppm (*)): 100* %
COC(=O)NCc1cc(-c2cnn(CCC[Si](C)(C)C)c2)ccc1Cl [Cmpd 126] |  |  |  |  |  |  |  |  |  |  |  | Percentage Disease Control, Test D [11, 12]: 97* %; Percentage Disease Control, Test F [2, 13]: 0%; Percentage Disease Control, Test A [3, 13]: 95%; Percentage Disease Control, Test E [4, 13]: 0%; Percentage Disease Control, Test H [5, 13]: 0%; Percentage Disease Control, Test B [8, 12]: 98* %; Percentage Disease Control, Test C [9, 13]: 99%
COC(=O)NCc1cc(C(C)=NOCC(C)[Si](C)(C)C)ccc1Cl (centres unmarked) [Compound 2, methyl N-[[2-chloro-5-[1-[[2-(trimethylsilyl)propoxy]imino]ethyl]phenyl]-methyl]carbamate] | 70 | 0 | 100 | 100 |  | 0 | 0 | 100 | 99 | 0 | 91* % | 
C=C(CON=C(C)c1ccc(Cl)c(CNC(=O)OC)c1)C[Si](C)(C)C [Compound 3] | 26 | 0 | 98 | 87 |  | 0 | 0 | 100 | 99 | 0 | 16* % | 
C=C[Si](C)(C)CON=C(C)c1ccc(Cl)c(CNC(=O)OC)c1 [Compound 4] | 74 | 37 | 98 | 97 |  | 0 | 0 | 99 | 99 | 0 | 59* % | 
